# According to patent US9271971B2, “Pyrido[3,4-B]indoles and methods of use” (Medivation Technologies, Inc., priority 2009, dated 2016):
# What was measured:
# [1] = biological target: T1, human recombinant histamine H2 receptor (Homo sapiens, UniProt P25021); assay: Histamine H2 radioligand binding assay; settings: [125I]Aminopotentidine specific binding; for inhibition at 1 µM: read-out: Percentage Inhibition, Histamine Binding (1 μM) H2
# T1 construct: expressed in transfected cells; host or cells: Chinese hamster ovary (CHO) K1 cells
# Protocol: To evaluate in radioligand binding assays the activity of compounds of the invention, human recombinant histamine H2 receptor expressed in Chinese hamster ovary (CHO) K1 cells [Ruat, M., Proc. Natl. Acad. Sci. USA. (1990), 87(5):1658] in a 50 mM Phosphate buffer, pH 7.4 was used. Compounds of the invention were incubated with 0.1 nM [^125I]Aminopotentidine for 120 min. at 25° C. Non-specific binding was estimated in the presence of 3 μM Tiotidine. Receptor proteins were filtered and washed, the filters were then counted to determine [^125I]Aminopotentidine specifically bound. Compounds were screened at 1 μM or lower, using 1% DMSO as vehicle. Biochemical assay results are presented as the percent inhibition of specific binding in Table 2.
# [2] = biological target: human recombinant serotonin (5-Hydroxytryptamine) 5-HT7 receptor (Homo sapiens, UniProt P34969); assay: Serotonin 5-HT7 radioligand binding assay; settings: [3H]LSD specific binding; for inhibition at 1 µM: read-out: Percent Inhibition of ligand binding, Serotonin (1 μM ligand concentration) 5-HT7
# Protocol: To evaluate in radioligand binding assays the activity of compounds of the invention, human recombinant serotonin (5-Hydroxytryptamine) 5-HT7 receptor expressed in Chinese hamster ovary (CHO) cells [Roth, B. L. et al., J. Pharmacol. Exp. Ther. (1994), 268:1403; Shen, Y. et al., J. Biol. Chem. (1993), 268:18200] in a modified Tris-HCl buffer (50 mM Tris-HCl, pH 7.4, 10 mM MgCl2, 0.5 mM EDTA) was used. Compounds of invention were incubated with 5.5 nM [^3H] Lysergic acid diethylamide (LSD) for 2 h at 25° C. Non-specific binding was estimated in the presence of 10 μM Serotonin (5-HT). Receptor proteins were filtered and washed, the filters were then counted to determine [^3H]LSD specifically bound. Compounds were screened at 1 μM or lower, using 1% DMSO as vehicle. Biochemical assay results are presented as the percent inhibition of specific binding in Table 4.
# [3] = biological target: T2, rat adrenergic α1B receptor (Rattus norvegicus, UniProt P15823); assay: Adrenergic α1B radioligand binding assay; settings: [3H]Prozosin specific binding, read-out: Percent Inhibition of ligand binding, Adrenergic (0.1 μM ligand conc.) α1B
# T2 construct: rat adrenergic α1B receptor obtained from Wistar Rat liver; from tissue; host or cells: Wistar Rat liver
# T2 sequence (P15823 1-515): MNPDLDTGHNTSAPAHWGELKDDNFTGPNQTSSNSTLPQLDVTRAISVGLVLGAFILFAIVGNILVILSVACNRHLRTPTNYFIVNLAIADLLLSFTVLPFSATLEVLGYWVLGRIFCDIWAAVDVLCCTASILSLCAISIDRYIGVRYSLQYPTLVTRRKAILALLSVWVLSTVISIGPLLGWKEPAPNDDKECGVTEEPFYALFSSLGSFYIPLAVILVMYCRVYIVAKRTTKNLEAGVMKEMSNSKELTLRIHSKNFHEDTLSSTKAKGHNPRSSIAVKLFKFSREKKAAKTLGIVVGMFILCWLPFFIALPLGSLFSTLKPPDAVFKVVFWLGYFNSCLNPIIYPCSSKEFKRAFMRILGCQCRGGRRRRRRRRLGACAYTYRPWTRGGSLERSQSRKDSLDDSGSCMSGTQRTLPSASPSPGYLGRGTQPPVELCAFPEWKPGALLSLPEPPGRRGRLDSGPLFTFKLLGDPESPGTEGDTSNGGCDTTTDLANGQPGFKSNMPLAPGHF
# Protocol: To evaluate in radioligand binding assays the activity of compounds of the invention, rat adrenergic α1B receptor obtained from Wistar Rat liver [Garcia-S′ainz, J. A. et al., Biochem. Biophys. Res. Commun. (1992), 186:760; Michel, A. D. et al., Br. J. Pharmacol. (1989), 98:883] in a modified Tris-HCl buffer (50 mM Tris-HCl buffer, pH 7.4, 0.5 mM EDTA) was used. Compounds of the invention were incubated with 0.25 nM [^3H]Prozosin for 60 min. at 25° C. Non-specific binding was estimated in the presence of 10 μM phentolamine. Receptor proteins were filtered and washed, the filters were then counted to determine [^3H]Prozosin specifically bound. Compounds were screened at 1 μM or lower, using 1% DMSO as vehicle. Compounds of the invention were tested in this biochemical assay. Biochemical assay results for representative compounds were presented as the percent inhibition of specific binding in Table 3.
# [4] = biological target: T3, human recombinant adrenergic α2C receptor (Homo sapiens, UniProt P18825); assay: Adrenergic α2C radioligand binding assay; settings: [3H]MK-912 specific binding, read-out: Percent Inhibition of ligand binding, Adrenergic (0.1 μM ligand conc.) α2C
# T3 construct: expressed in transfected cells; host or cells: insect Sf9 cells
# T3 sequence (P18825 1-462): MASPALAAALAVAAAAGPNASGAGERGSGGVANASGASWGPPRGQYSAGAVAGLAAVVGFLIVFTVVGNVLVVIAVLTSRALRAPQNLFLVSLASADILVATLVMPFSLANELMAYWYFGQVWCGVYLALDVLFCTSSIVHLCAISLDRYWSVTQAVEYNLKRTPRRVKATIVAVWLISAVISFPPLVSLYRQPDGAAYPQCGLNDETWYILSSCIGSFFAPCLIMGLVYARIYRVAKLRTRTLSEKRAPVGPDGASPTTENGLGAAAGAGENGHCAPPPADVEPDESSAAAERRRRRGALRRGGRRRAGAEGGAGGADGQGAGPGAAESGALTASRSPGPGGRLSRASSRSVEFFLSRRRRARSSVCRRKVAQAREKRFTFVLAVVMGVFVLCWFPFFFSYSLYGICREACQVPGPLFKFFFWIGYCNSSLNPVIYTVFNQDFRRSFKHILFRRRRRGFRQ
# Protocol: To evaluate in radioligand binding assays the activity of compounds of the invention, human recombinant adrenergic α2C receptor expressed in insect Sf9 cells [Uhlen, S et al., J. Pharmacol. Exp. Ther. (1994), 271:1558] in a modified Tris-HCl buffer (50 mM Tris-HCl, pH 7.4, 12.5 mM MgCl2, 2 mM EDTA) was used. Compounds of the invention were incubated with 1 nM [^3H]MK-912 for 60 min. at 25° C. Non-specific binding was estimated in the presence of 10 μM WB-4101. Receptor proteins were filtered and washed, the filters were then counted to determine [^3H]MK-912 specifically bound. Compounds were screened at 1 μM or lower, using 1% DMSO as vehicle. Compounds of the invention were tested in this biochemical assay. Biochemical assay results for representative compounds were presented as the percent inhibition of specific binding in Table 3.
# Chain of human recombinant serotonin (5-Hydroxytryptamine) 5-HT7 receptor (P34969 whole entry): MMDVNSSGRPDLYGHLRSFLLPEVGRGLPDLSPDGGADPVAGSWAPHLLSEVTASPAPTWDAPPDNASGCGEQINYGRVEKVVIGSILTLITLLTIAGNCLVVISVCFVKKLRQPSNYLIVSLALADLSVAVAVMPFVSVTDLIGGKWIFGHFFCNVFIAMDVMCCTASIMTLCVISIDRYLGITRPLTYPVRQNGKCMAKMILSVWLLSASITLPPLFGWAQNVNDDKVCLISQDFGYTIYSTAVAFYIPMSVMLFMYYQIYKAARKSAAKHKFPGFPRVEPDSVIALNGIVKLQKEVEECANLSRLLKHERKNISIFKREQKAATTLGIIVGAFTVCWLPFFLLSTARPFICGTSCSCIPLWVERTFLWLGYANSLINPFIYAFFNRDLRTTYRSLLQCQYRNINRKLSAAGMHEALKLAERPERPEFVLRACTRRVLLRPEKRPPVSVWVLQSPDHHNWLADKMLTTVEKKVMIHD
# T1 sequence (P25021 whole entry): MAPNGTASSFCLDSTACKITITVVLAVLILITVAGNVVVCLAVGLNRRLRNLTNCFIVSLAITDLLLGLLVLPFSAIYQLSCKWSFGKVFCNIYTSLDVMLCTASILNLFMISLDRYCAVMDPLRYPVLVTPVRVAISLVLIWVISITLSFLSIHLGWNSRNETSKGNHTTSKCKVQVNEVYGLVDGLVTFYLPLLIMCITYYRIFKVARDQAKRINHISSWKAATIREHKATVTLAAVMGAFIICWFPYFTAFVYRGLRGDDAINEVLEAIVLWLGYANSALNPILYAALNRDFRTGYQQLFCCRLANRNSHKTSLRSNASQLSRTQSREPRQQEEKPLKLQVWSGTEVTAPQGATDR
SMILES,inhibition at 1 µM [1] [%],inhibition at 1 µM [2] [%],other results
Cc1ccc2c(c1)c1c(n2CCc2ccc(C(F)(F)F)nc2)CN2CCC1C2 (centres unmarked) [Compound 1],0,–,–
Cc1ccc2c(c1)c1c(n2CC(C)(O)c2ccc(F)cc2)CN2CCC1C2 (centres unmarked) [Compound 2],8,–,–
C=C(Cn1c2c(c3cc(C)ccc31)C1CCN(C2)C1)c1ccc(F)cc1 (centres unmarked) [Compound 3],25,–,–
Cc1ccc2c(c1)c1c(n2CC(O)c2ccccc2)CN2CCC1C2 (centres unmarked) [Compound 4],5,–,–
Cc1ccc(C(O)Cn2c3c(c4cc(C)ccc42)C2CCN(C3)C2)cc1 (centres unmarked) [Compound 5],4,–,–
COc1ccc(C(O)Cn2c3c(c4cc(C)ccc42)C2CCN(C3)C2)cc1F (centres unmarked) [Compound 6],-5,–,–
Cc1ccc2c(c1)c1c(n2CC(=O)N2CCCCC2)CN2CCC1C2 (centres unmarked) [Compound 7],-4,–,–
COc1ccc(C(O)Cn2c3c(c4cc(C)ccc42)C2CCN(C3)C2)cc1OC (centres unmarked) [Compound 8],2,–,–
Cc1ccc2c(c1)c1c(n2CCc2cncc(F)c2)CN2CCC1C2 (centres unmarked) [Compound 9],6,–,–
Cc1ccc(/C=C/n2c3c(c4cc(C)ccc42)C2CCN(C3)C2)cc1 (centres unmarked) [Compound 10],6,–,–
Cc1ccc2c(c1)c1c(n2CCc2ccccn2)CN2CCC1C2 (centres unmarked) [Compound 11],-2,–,–
Cc1ccc2c(c1)c1c(n2CCc2ccc(C)nc2)CN2CCC1C2 (centres unmarked) [Compound 12],4,–,–
Cc1ccc2c(c1)c1c(n2CC(C)(O)c2ccc(Cl)c(Cl)c2)CN2CCC1C2 (centres unmarked) [Compound 13],8,–,–
Cc1ccc2c(c1)c1c(n2CC(C)(O)c2ccc(Cl)cc2Cl)CN2CCC1C2 (centres unmarked) [Compound 14],24,–,–
Cc1ccc2c(c1)c1c(n2CC(C)(O)c2ccc(F)c(F)c2)CN2CCC1C2 (centres unmarked) [Compound 15],13,–,–
Cc1ccc2c(c1)c1c(n2CC(C)(O)c2ccc(Cl)cc2)CN2CCC1C2 (centres unmarked) [Compound 16],10,–,–
Cc1ccc2c(c1)c1c(n2CC(C)(O)c2ccc(F)cc2F)CN2CCC1C2 (centres unmarked) [Compound 17],4,–,–
Cc1ccc2c(c1)c1c(n2CC(C)(O)c2ccc(F)c(Cl)c2)CN2CCC1C2 (centres unmarked) [Compound 18],16,–,–
Cc1ccc2c(c1)c1c(n2CCc2nc(-c3ccccc3)cs2)CN2CCC1C2 (centres unmarked) [Compound 19],-9,–,–
Cc1ccc(C(C)(O)Cn2c3c(c4cc(C)ccc42)C2CCN(C3)C2)cc1 (centres unmarked) [Compound 20],2,–,–
Cc1ccc2c(c1)c1c(n2CC(=O)c2ccccc2)CN2CCC1C2 (centres unmarked) [Compound 21],-6,–,–

SMILES,inhibition at 1 µM [1] [%],inhibition at 1 µM [2] [%],other results
C/C(=C\n1c2c(c3cc(C)ccc31)C1CCN(C2)C1)c1ccc(F)cc1 (centres unmarked) [Compound 22],15,–,–
Cc1ccc2c(c1)c1c(n2CC(=O)NC2CCCCC2)CN2CCC1C2 (centres unmarked) [Compound 23],-3,–,–
Cc1ccc2c(c1)c1c(n2CC(=O)N2CCNCC2)CN2CCC1C2 (centres unmarked) [Compound 24],-3,–,–
Cc1ccc2c(c1)c1c(n2CC(=O)N2CCC(C)CC2)CN2CCC1C2 (centres unmarked) [Compound 25],-4,–,–
Cc1ccc2c(c1)c1c(n2CC(=O)N2CCOCC2)CN2CCC1C2 (centres unmarked) [Compound 26],-1,–,–
Cc1ccc2c(c1)c1c(n2CC(=O)N(C)C)CN2CCC1C2 (centres unmarked) [Compound 27],-3,–,–
Cc1ccc2c(c1)c1c(n2CC(=O)c2ccc(F)cc2)CN2CCC1C2 (centres unmarked) [Compound 28],18,82,–
Cc1ccc2c(c1)c1c(n2CC(=O)c2ccc(Cl)cc2)CN2CCC1C2 (centres unmarked) [Compound 29],19,81,–
Cc1ccc2c(c1)c1c(n2CCc2ccncc2)CN2CCC1C2 (centres unmarked) [Compound 30],18,95,–
Cc1ccc2c(c1)c1c(n2CC(O)c2ccc(F)cc2)CN2CCC1C2 (centres unmarked) [Compound 31],5,73,–
C/C(=C\n1c2c(c3cc(C)ccc31)C1CCN(C2)C1)c1ccc(Cl)cc1 (centres unmarked) [Compound 32],82,96,inhibition at 0.1 µM [3]: 67%; inhibition at 0.1 µM [4]: 39%
C/C(=C\n1c2c(c3cc(C)ccc31)C1CCN(C2)C1)c1ccc(Cl)cc1Cl (centres unmarked) [Compound 33],35,96,inhibition at 0.1 µM [3]: 28%; inhibition at 0.1 µM [4]: 16%
C/C(=C\n1c2c(c3cc(C)ccc31)C1CCN(C2)C1)c1ccc(Cl)cc1Cl (centres unmarked) [Compound 34],–,–,"Percentage Inhibition, Histamine Binding (1 μM) H2 ([1]; 1 µM): 40%; Percent Inhibition of ligand binding, Serotonin (1 μM ligand concentration) 5-HT7 [2]: 86%"
Cc1ccc2c(c1)c1c(n2C#Cc2ccc(Cl)cc2)CN2CCC1C2 (centres unmarked) [Compound 35],19,35,–
C/C(=C/n1c2c(c3cc(C)ccc31)C1CCN(C2)C1)c1ccccc1F (centres unmarked) [Compound 37],22,93,–
C/C(=C\n1c2c(c3cc(C)ccc31)C1CCN(C2)C1)c1ccc(F)c(F)c1 (centres unmarked) [Compound 39],20,96,–
C/C(=C\n1c2c(c3cc(C)ccc31)C1CCN(C2)C1)c1ccc(Cl)c(Cl)c1 (centres unmarked) [Compound 40],39,95,–
COc1ccc(/C(C)=C/n2c3c(c4cc(C)ccc42)C2CCN(C3)C2)cc1F (centres unmarked) [Compound 41],24,90,–
C/C(=C\n1c2c(c3cc(C)ccc31)C1CCN(C2)C1)c1cccnc1 (centres unmarked) [Compound 42],1,92,–
Cc1ccc2c(c1)c1c(n2C(=O)Cc2ccc(F)cc2)CN2CCC1C2 (centres unmarked) [Compound 43],7,41,–
